Literature values as cited in patent publication US20250031694A1, “AGRICULTURAL CHEMICAL COMPOSITION AND METHOD FOR PRODUCING SAME” (MITSUI CHEMICALS CROP & LIFE SOLUTIONS, INC., priority 2021, published 2025).
≈ marks a conversion by molar mass, not a printed value.

Settings: FAMIC agrochemical abstract

Row | Structure (SMILES) | water solubility (25° C.) [µg/mL] | water solubility (20° C.) [µg/mL]
1 | CCCOCCN(C(=O)CCl)c1c(CC)cccc1CC [pretilachlor] | 74 (≈ 237 µM) | –
2 | CC(=O)Oc1c(C)c(C)nc2c(F)cc(C(C)(C)C)cc12 [tebufloquin] | – | 20.2 (≈ 69.8 µM)
3 | C=CCOC1=NS(=O)(=O)c2ccccc21 [probenazole] | – | 36.6 (≈ 164 µM)
4 | CN1COCN(Cc2cnc(Cl)s2)/C1=N\[N+](=O)[O-] [thiamethoxam] | 4100 (≈ 14100 µM) | –
